Experimental data as given in patent publication US10501552B2, “Multivalent molecules comprising DR5-binding domains” (MacroGenics, Inc., priority 2015, dated 2019).
Each block holds one substance with its values, some of them ahead of it.

Tests used:
[1] = test system: astrocytoma and leukemia cells; conditions: cited from earlier work
[2] = test system: engrafted breast cancer cells; conditions: cited from earlier work
[3] = a few patients; higher doses (20 mg per kg); cited from earlier work
[4] = molecular target: cynomolgus monkey DR5 (His-tagged); assay: Biacore analysis of binding kinetics; set-up: ka / kd: unit not given here; conditions: tested as DR5×CD3 mAb 2 diabody
Experimental: Bispecific DR5×CD3 diabodies were incubated with His-tagged DR5 and the kinetics of binding was determined via Biacore analysis. […] FIG. 6, Panels A-D show the results for human DR5. FIG. 6, Panels E-H show the results for cynomolgus monkey DR5.

[5] = molecular target: histidine tagged TRAIL (Homo sapiens, UniProt P50591); assay: binding to TRAIL-His coat; conditions: 2 μg/mL biotinylated; 1 μg/mL TRAIL-His coat
Experimental: The amount of immobilized biotinylated antibody was assessed.

[6] = cited from earlier work
[7] = test system: 786O; assay: […]-GLO cell viability assay with vorinostat; format: cell-based; conditions: 786O (Kidney); 1 μg/ml + 1 μM Vorinostat
[8] = test system: MDA-MB-361; assay: […]-GLO cell viability assay with vorinostat; format: cell-based; conditions: MDA-MB-361 (Breast); 1 μg/ml + 10 μM Vorinostat
[9] = test system: SKBR3; assay: […]-GLO cell viability assay with vorinostat; format: cell-based, human; conditions: SKBR3 (Breast); 1 μg/ml + 1 μM Vorinostat
[10] = test system: A549; assay: […]-GLO cell viability assay with vorinostat; format: cell-based, human; conditions: A549 (Lung); 1 μg/ml + 10 μM Vorinostat
[11] = test system: PC3; assay: […]-GLO cell viability assay with vorinostat; format: cell-based; conditions: PC3 (Prostate); 1 μg/ml + 1 μM Vorinostat
[12] = test system: MDA-MB-175VII; assay: […]-GLO cell viability assay with vorinostat; format: cell-based; conditions: MDA-MB-175VII (Breast); 1 μg/ml + 1 μM Vorinostat
[13] = test system: MCF7; assay: […]-GLO cell viability assay with vorinostat; format: cell-based; conditions: MCF7 (Breast); 1 μg/ml + 10 μM Vorinostat
[14] = test system: ES2; assay: […]-GLO cell viability assay with vorinostat; format: cell-based; conditions: ES2 (Ovary); 1 μg/ml + 10 μM Vorinostat
[15] = test system: 22RV1; assay: […]-GLO cell viability assay with vorinostat; format: cell-based; conditions: 22RV1 (Prostate); 1 μg/ml + 10 μM Vorinostat
[16] = test system: LNCap; assay: […]-GLO cell viability assay with vorinostat; format: cell-based, human; conditions: LNCap (Prostate); 1 μg/ml + 10 μM Vorinostat
[17] = test system: NCI-N87; assay: […]-GLO cell viability assay with vorinostat; format: cell-based; conditions: NCI-N87 (Stomach); 1 μg/ml + 1 μM Vorinostat
[18] = test system: Hs700T; assay: […]-GLO cell viability assay with vorinostat; format: cell-based; conditions: Hs700T (Pancreas); 1 μg/ml + 1 μM Vorinostat
[19] = test system: DU145; assay: […]-GLO cell viability assay with vorinostat; format: cell-based, human; conditions: DU145 (Prostate); 1 μg/ml + 10 μM Vorinostat
[20] = test system: Hs746T; assay: […]-GLO cell viability assay with vorinostat; format: cell-based; conditions: Hs746T (Stomach); 1 μg/ml + 10 μM Vorinostat
[21] = test system: AsPC1; assay: […]-GLO cell viability assay with vorinostat; format: cell-based; conditions: AsPC1 (Pancreas); 1 μg/ml + 1 μM Vorinostat
[22] = test system: HPAFII; assay: […]-GLO cell viability assay with vorinostat; format: cell-based; conditions: HPAFII (Pancreas); 1 μg/ml + 10 μM Vorinostat
[23] = test system: SKOV3; assay: […]-GLO cell viability assay with vorinostat; format: cell-based; conditions: SKOV3 (Ovary); 1 μg/ml + 1 μM Vorinostat
[24] = test system: COLO205; assay: […]-GLO cell viability assay with vorinostat; format: cell-based; conditions: for Average % Ctrl: one day
Experimental: For the first study COLO205 cells were plated at 2×10^4 cells/well (in 96-well plates), and incubated overnight in F12/DMEM media supplemented with 10% FBS. […] Cell viability was determined using Promega […]-GLO® Luminescent Cell Viability Assay (Cat # G5430) essentially as described in the manufacturer's instructions to assay the amount of ATP present, which is a measure of the number of viable cells in the culture. Briefly, an […]-GLO® Reagent was added to the wells and mixed for two minutes to induce lysis and the luminescence was read in a in PerkinElmer EnVision multilabel plate reader.
Cell viability of cells treated with the test articles is normalized to the corresponding negative control (medium±vorinostat) which is set to 100% and reported in Table 12 as % of control for each test agent alone or % control for each test agent in combination with vorinostat. % of control values less than 100% indicate a reduction in viability and reflect the cytotoxicity of the test article alone or in combination with vorinostat.
The Net Gain (Average % Growth Inhibition)=% Medium Ctrl (10% FBS)−% Medium Ctrl (1/10 μM vorinostat), and represents increased cytotoxicity of the test article in combination with vorinostat over cells treated with vorinostat alone.

[25] = test system: Calu3; assay: […]-GLO cell viability assay with vorinostat; format: cell-based; conditions: Calu3 (Lung); 1 μg/ml + 1 μM Vorinostat
[26] = test system: BT474; assay: […]-GLO cell viability assay with vorinostat; format: cell-based; conditions: BT474 (Breast); 1 μg/ml + 10 μM Vorinostat

Chain of histidine tagged TRAIL (P50591 114-281 limits assumed): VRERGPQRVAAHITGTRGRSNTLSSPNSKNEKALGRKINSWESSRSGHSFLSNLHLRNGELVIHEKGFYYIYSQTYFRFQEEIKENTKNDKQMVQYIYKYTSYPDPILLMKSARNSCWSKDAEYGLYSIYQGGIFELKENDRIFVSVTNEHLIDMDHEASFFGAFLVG

Substance: TRA-8/CS-1008: humanized anti-DR5 antibody (Daiichi Sankyo)
antitumor activity in vitro [1]: high antitumor activity
antitumor activity in vivo [2]: high antitumor activity

Substance: lexatumummab: anti-DR5 agonist antibody from Human Genome Sciences
hepatotoxicity [3]: Hepatotoxicity with increased serum alanine aminotransferase, aspartate aminotransferase and bilirubin

Kd [4]: 16.4 nM
ka [4]: 2.5 × 10^6
kd [4]: 4.1 × 10^−2
Substance: DR5 mAb 4: conatumumab, known anti-human DR5 antibody; VL SEQ ID NO:62, VH SEQ ID NO:66

amount of immobilized biotinylated antibody [5]: 0.288
Substance: DR5-Fc fusion: human DR5-Fc fusion protein, biotinylated, tested on TRAIL-His coat [reference compound]

Substance: soluble TRAIL: soluble TRAIL preparations
in vivo half-life [6]: approximately 30 minutes

Substance: R&D TRAIL/His: His-tagged TRAIL (R&D systems) used as a positive control [reference compound]
Net Gain (Average % Growth Inhibition) [7]: 31.16%
Net Gain (Average % Growth Inhibition) [8]: 64.85%
Net Gain (Average % Growth Inhibition) [9]: 43.10%
Net Gain (Average % Growth Inhibition) [10]: 26.71%
Net Gain (Average % Growth Inhibition) [11]: 12.49%
Net Gain (Average % Growth Inhibition) [12]: 24.17%
Net Gain (Average % Growth Inhibition) [13]: 0.79%
Net Gain (Average % Growth Inhibition) [14]: 79.12%
Net Gain (Average % Growth Inhibition) [15]: 8.91%
Net Gain (Average % Growth Inhibition) [16]: 28.73%
Net Gain (Average % Growth Inhibition) [17]: 35.97%
Net Gain (Average % Growth Inhibition) [18]: 15.83%
Net Gain (Average % Growth Inhibition) [19]: 4.57%
Net Gain (Average % Growth Inhibition) [20]: 31.81%
Net Gain (Average % Growth Inhibition) [21]: 11.86%
Net Gain (Average % Growth Inhibition) [22]: 46.71%
Net Gain (Average % Growth Inhibition) [23]: 33.93%
Average % Ctrl ([24]; Vorinostat 0 μM, % Medium Ctrl (10% FBS), 10 ng/ml tetravalent molecule or 1 μg/ml DR5 mAb): 68.7%
Net Gain (Average % Growth Inhibition) ([24]; Vorinostat 0.1 μM): 15%
Average % Ctrl ([24]; Vorinostat 0.1 μM, normalized to medium + vorinostat): 54.1%
Net Gain (Average % Growth Inhibition) ([24]; Vorinostat 1 μM): 24%
Average % Ctrl ([24]; Vorinostat 1 μM, normalized to medium + vorinostat): 44.8%
Net Gain (Average % Growth Inhibition) [25]: 9.96%
Net Gain (Average % Growth Inhibition) [26]: 50.24%

Kd [4]: 13.3 nM
ka [4]: 3.3 × 10^6
kd [4]: 4.4 × 10^−2
Substance: DR5 mAb 3: drozitumab, known anti-human DR5 antibody; VL SEQ ID NO:54, VH SEQ ID NO:58
